Source: patent US8802240B2, “Uses of formulations of thyroid hormone analogs and nanoparticulate forms thereof to increase chemosensitivity and radiosensitivity in tumor or cancer cells” (Nanopharmaceuticals LLC, priority 2011, dated 2014)
Values joined by “and” are separate entries in the source; they are usually repeats but may differ in a detail not shown here. Identical values can stand only once. Like-named read-outs stand apart in the source and are kept apart here.

Key:
[1] = system: chick chorioallantoic membrane (CAM) blood vessel branch points; test: Chick chorioallantoic membrane (CAM) model of angiogenesis; format: in vivo
Protocol: In vivo neovascularization was examined by methods described previously. 9-12 Ten-day-old chick embryos were purchased from SPAFAS (Preston, Conn.) and incubated at 37° C. with 55% relative humidity. A hypodermic needle was used to make a small hole in the shell concealing the air sac, and a second hole was made on the broad side of the egg, directly over an avascular portion of the embryonic membrane that was identified by candling. A false air sac was created beneath the second hole by the application of negative pressure at the first hole, causing the CAM to separate from the shell. […] Thyroid hormone, hormone analogs, FGF2 or control solvents, and inhibitors were then applied to the disks and the disks allowed to dry. The disks were then suspended in PBS and placed on growing CAMs. […] At 24 hours, the MAPK cascade inhibitor PD 98059 was also added to CAMs topically by means of the filter disks. […] The number of vessel branch points contained in a circular region equal to the area of each filter disk were counted. […] In addition, each experiment was performed 3 times. The resulting angiogenesis index is the mean±SEM of new branch points.

[2] = system: matrigel plug angiogenesis; test: Mouse matrigel model of angiogenesis (plug hemoglobin); format: in vivo, mice (C57BL/6NCr); settings: for inhibition of FGF-induced angiogenesis (in words) / inhibition in vivo at 10 µg/plug: numbers are Tetrac analogs of Example 13; for inhibition in vivo at 10 µg/plug: Mus musculus, FGF 100 ng + test substance 10 μg/plug
Protocol: Normal male mice (C57BL/6NCr) 6-8 weeks of age and weighing ˜20 g were purchased from Taconic farm. Animals were housed 4 per cage, in controlled conditions of temperature (20-24° C.); humidity (60-70%) and 12 hrs. light/dark cycle provided with food and water ad libitum. […] Aliquots of matrigel were placed into cold polypropylene tubes to prevent the matrigel from solidifying and the angiogenesis promoter added to matrigel with or without agonist. Mice were treated daily. Matrigel was subcutaneously injected as triple injection per animal at 100 μL/animal. At day 14 post plug implant all animals were killed in CO2 chamber and matrigel plugs were collected. Plug hemoglobin content was analyzed from three implants/mice (n=6 per group) to measure angiogenesis.
The matrigel plugs dissected from the mice were carefully stripped of any remaining peritoneum. The plugs were placed into 0.5 mL tube of ddH2O and homogenized for 5-10 min. […] Absorbance was read with a Microplate Manager ELISA reader at 540 nm. […] Hemoglobin concentration is a reflection of the number of blood vessels in the plugs.

[3] = numbers are T4 analogs of Example 12
[4] = Gallus gallus, read-out: Mean % of stimulation (comparing to PBS)
[5] = 0.01 uM; n = 8 per group; PBS (Control) 89.4 ± 9.3
[6] = 0.1 uM; n = 8 per group; PBS (Control) 89.4 ± 9.3
[7] = 1 μM; numbers are T4 analogs of Example 12
[8] = 1 μM; numbers are T4 analogs of Example 12; mean ± SEM, n = 8; PBS 73 ± 6
[9] = 10 μg/matrigel plug, numbers are T4 analogs of Example 12
[10] = 10 μg/matrigel plug, numbers are T4 analogs of Example 12, n = 6-7, Control 0.3 ± 0.1
[11] = T4 + test substance, each 10 μg/matrigel plug, n = 25, T4 alone 1.2 ± 0.4

Compound: O=C(Cc1cc(I)c(Oc2cc(I)c(OCC3CO3)c(I)c2)c(I)c1)OCC1CO1 (stereo not drawn)
- melting point: 116 °C

Compound: CCNC(Cc1cc(I)c(Oc2cc(I)c(O)c(I)c2)c(I)c1)C(=O)O (stereo not drawn) [T4 analog 11, 2-(Ethylamino)-3-[4-(4-hydroxy-3,5-diiodophenoxy)-3,5-diiodophenyl]propanoic acid]
- effect on angiogenesis, representative illustrations FIG. 23 (in words) [1, 3]: proangiogenesis

Compound: FGF2: human recombinant FGF2, basic fibroblast growth factor, standard proangiogenic agent
- ANGIOGENESIS INDEX ([1]; 1 uM; n = 8 per group; PBS (Control) 89.4 ± 9.3): 155 ± 9
- Branch pts ± SEM ([1]; 1.25 μg/ml; PBS 76.0 ± 8.5): 137.9 ± 7.5
- Mean % of stimulation (comparing to PBS) ([1]; FGF 1.25 μg/mL alone): 178.1 ± 7.5%
- Mean Branch points ([1]; FGF 1.25 μg/mL alone; n = 8; PBS 73 ± 6): 130 ± 11
- stimulation of branch formation ([1]; FGF2 1 μg/mL): 2.2 fold
- increase in angiogenesis ([1]; FIG. 5, 3 experiments; concentration not given): 2 fold
- Hemoglobin (mg/mL) ± SEM ([2]; FGF 100 ng alone, Control 0.3 ± 0.1): 2.4 ± 0.4 mg/mL

Compound: CC(C)[Si](OC(=O)Cc1cc(I)c(Oc2cc(I)c(OCC3CO3)c(I)c2)c(I)c1)(C(C)C)C(C)C (stereo not drawn)
- melting point: 120 °C

Compound: CC(C)(C)OC(=O)NC(Cc1cc(I)c(Oc2cc(I)c(O)c(I)c2)c(I)c1)C(=O)O (stereo not drawn) [Compound 7]
- change in vivo at 0.1 µM [1, 4]: 137 ± 7.5%

Compound: O=C(O)CCc1cc(I)c(Oc2ccc(O)cc2)c(I)c1 [DITPA, 3,5-diiodothyropropionic acid]
- ANGIOGENESIS INDEX [1, 5]: 133.0 ± 11.6
- ANGIOGENESIS INDEX [1, 6]: 167.3 ± 12.7
- ANGIOGENESIS INDEX ([1]; 0.2 mM; n = 8 per group; PBS (Control) 89.4 ± 9.3): 117.9 ± 5.6

Compound: CCNC(Cc1cc(I)c(Oc2cc(I)c(O)c(I)c2)c(I)c1)C(=O)O (stereo not drawn) [PRIAB12]
- Branch pts ± SEM ([1]; 0.1 μM; PBS 76.0 ± 8.5): 121.7 ± 13.6

Compound: CC(C)(C)OC(=O)NC(Cc1cc(I)c(Oc2cc(I)c(OCC3CO3)c(I)c2)c(I)c1)C(=O)OCC1CO1 (stereo not drawn) [T4 analog 14, Oxiran-2-ylmethyl-2-(tert-butoxycarbonylamino)-3-(4-(3,5-diiodo-4-(oxiran-2-ylmethoxy)phenoxy)-3,5-diiodophenyl)propanoate]
- Mean % of stimulation (comparing to PBS) [1, 7]: 56.2 ± 7.5%
- Mean Branch points [1, 8]: 114 ± 11
- Mean stimulation of angiogenesis (%) [2, 9]: 0 ± 17%
- Hemoglobin (mg/mL) ± SEM [2, 10]: 0.3 ± 0.1 mg/mL

Compound: CC(C)[Si](OC(=O)C(Cc1cc(I)c(Oc2cc(I)c(OCC3CO3)c(I)c2)c(I)c1)NC(=O)OC(C)(C)C)(C(C)C)C(C)C (stereo not drawn) [T4 analog 15, Triisopropylsilyl-2-(tert-butoxycarbonylamino)-3-(4-(3,5-diiodo-4-(oxiran-2-ylmethoxy)phenoxy)-3,5-diiodophenyl)propanoate]
- Mean Branch points [1, 8]: 98 ± 8
- change in vivo at 1 µM [1, 4]: 34.2 ± 7%
- effect on angiogenesis, representative illustrations FIG. 23 (in words) [1, 3]: no effect
- Mean stimulation of angiogenesis (%) [2, 9]: 0 ± 17%
- Hemoglobin (mg/mL) ± SEM [2, 10]: 0.3 ± 0.1 mg/mL

Compound: CC(C)(C)OC(=O)NC(Cc1cc(I)c(Oc2cc(I)c(O)c(I)c2)c(I)c1)C(=O)O (stereo not drawn) [T4 analog 7, 2-[(Tert-butoxycarbonyl)amino]-3-[4-(4-hydroxy-3,5-diiodophenoxy)-3,5-diiodophenyl]propanoic acid]
- Branch pts ± SEM ([1]; 0.1 μM; PBS 65.2 ± 14.9): 173 ± 9.9

Compound: CC(C)[Si](OC(=O)C(Cc1cc(I)c(Oc2cc(I)c(O)c(I)c2)c(I)c1)NC(=O)OC(C)(C)C)(C(C)C)C(C)C (stereo not drawn) [T4 analog 13, Triisopropylsilyl-2-(tert-butoxycarbonylamino)-3-(4-(4-hydroxy-3,5-diiodophenoxy)-3,5-diidoclophenyl)propanoate]
- Mean % of stimulation (comparing to PBS) [1, 7]: 4.1 ± 6.5%
- Mean Branch points [1, 8]: 76 ± 7
- Mean % Inhibition ([1]; FGF (1.25 μg/ml) + test substance, 10 μg/plug per footnote; numbers are Tetrac analogs of Example 13): 44 ± 13%
- Mean Branch points ([1]; FGF (1.25 μg/ml) + test substance, 10 μg/plug per footnote; numbers are Tetrac analogs of Example 13; n = 8; PBS 73 ± 6, FGF 130 ± 11): 105 ± 7
- Mean stimulation of angiogenesis (%) [2, 9]: 0 ± 17%
- Hemoglobin (mg/mL) ± SEM [2, 10]: 0.3 ± 0.1 mg/mL

Compound: CC(C)(C)OC(=O)NC(Cc1cc(I)c(Oc2cc(I)c(OCC3CO3)c(I)c2)c(I)c1)C(=O)OCC1CO1 (stereo not drawn) (hydrate or solvate) [T4 analog 14, Oxiran-2-ylmethyl-2-(tert-butoxycarbonylamino)-3-(4-(3,5-diiodo-4-(oxiran-2-ylmethoxy)phenoxy)-3,5-diiodophenyl)propanoate]
- melting point: 105 °C

Compound: CC(C)(C)OC(=O)Cc1cc(I)c(Oc2cc(I)c(O)c(I)c2)c(I)c1 [Tetrac analog 3, tert-Butyl-2-(4-(4-hydroxy-3,5-diiodophenoxy)-3,5-diiodophenyl)acetate]
- inhibition of FGF-induced angiogenesis (in words) [2]: strong

Compound: O=C(Cc1cc(I)c(Oc2cc(I)c(OCCCl)c(I)c2)c(I)c1)NC1CCCCC1 [Tetrac analog 15, 2-(4-(4-(2-chloroethoxy)-3,5-diiodophenoxy)-3,5-diiodophenyl)-N-cyclohexylacetamide]
- melting point: 263 °C

Compound: CNC(Cc1cc(I)c(Oc2cc(I)c(O)c(I)c2)c(I)c1)C(=O)O (stereo not drawn) [PRIAB6]
- Branch pts ± SEM ([1]; 0.1 μM; PBS 76.0 ± 8.5): 136.2 ± 12.4

Compound: O=C(Cc1cc(I)c(Oc2cc(I)c(O)c(I)c2)c(I)c1)NC1CCCCC1 [Tetrac analog 4, N-cyclohexyl-2-(4-(4-hydroxy-3,5-diiodophenoxy)-3,5-diiodophenyl)acetamide]
- inhibition of angiogenesis in the CAM assay (in words) ([1]; numbers are Tetrac analogs of Example 13): not as strong as compounds 3, 5, 7, and 9
- inhibition in vivo at 10 µg/plug [2]: 104 ± 12%
- inhibition of FGF-induced angiogenesis (in words) [2]: strong

Compound: O=C(O)C(Cc1cc(I)c(Oc2cc(I)c(O)c(I)c2)c(I)c1)NC(c1ccccc1)(c1ccccc1)c1ccccc1 (stereo not drawn) [PRIAB2]
- Branch pts ± SEM ([1]; 0.1 μM; PBS 76.0 ± 8.5): 136.0 ± 18.1

Compound: CCNC(Cc1cc(I)c(Oc2cc(I)c(O)c(I)c2)c(I)c1)C(=O)OCC (stereo not drawn) [T4 analog 12, Ethyl-2-(ethylamino)-3-[4-(4-hydroxy-3,5-diiodophenoxy)-3,5-diiodophenyl]propanoate]
- Mean Branch points ([1]; FGF (1.25 μg/ml) + T4 analog 12 (0.1 μM); PBS 73 ± 6): 46 ± 2
- effect on FGF and T4 activity, CAM and matrigel assays (in words) ([1]; T4 analog of Example 12): entirely inhibiting FGF and T4 activity
- effect on angiogenesis, representative illustrations FIG. 23 (in words) [1, 3]: anti-angiogenic
- Hemoglobin (mg/mL) ± SEM [2, 11]: 0.4 ± 0.1 mg/mL

Compound: CC(C)[Si](OC(=O)C(Cc1cc(I)c(Oc2cc(I)c(OCC3CO3)c(I)c2)c(I)c1)NC(=O)OC(C)(C)C)(C(C)C)C(C)C (stereo not drawn) (hydrate or solvate) [T4 analog 15, Triisopropylsilyl-2-(tert-butoxycarbonylamino)-3-(4-(3,5-diiodo-4-(oxiran-2-ylmethoxy)phenoxy)-3,5-diiodophenyl)propanoate]
- melting point: 109 °C

Compound: CC(=O)NC(Cc1cc(I)c(Oc2cc(I)c(OC(C)=O)c(I)c2)c(I)c1)C(=O)O (stereo not drawn) [Compound 9]
- change in vivo at 0.1 µM ([1]; Gallus gallus; read-out: Mean % of stimulation (comparing to PBS)): 67.1 ± 5%

Compound: Cc1cc(OCC(=O)O)cc(C)c1Cc1ccc(O)c(C(C)C)c1 [GC-1, 3,5-dimethyl-4-(4′-hydroxy-3′-isopropylbenzyl)-phenoxy acetic acid]
- ANGIOGENESIS INDEX [1, 5]: 169.6 ± 11.6
- ANGIOGENESIS INDEX [1, 6]: 152.7 ± 9.0

Compound: O=C(O)Cc1cc(I)c(Oc2cc(I)c(OCC3CO3)c(I)c2)c(I)c1 (stereo not drawn) [Compound 9]
- inhibition in vivo at 10 µg/plug [2]: 100 ± 12%

Compound: CNC(Cc1cc(I)c(Oc2cc(I)c(O)c(I)c2)c(I)c1)C(=O)[O-].O.O.[K+] (stereo not drawn) [T4 analog 10, Potassium 3-[4-(4-hydroxy-3,5-diiodophenoxy)-3,5-diiodophenyl]-2-(methylamino)propanoate dihydrate]
- Mean % of stimulation (comparing to PBS) ([1]; 0.1 μM; numbers are T4 analogs of Example 12): 43.8 ± 6.5%
- Mean Branch points ([1]; 0.1 μM; numbers are T4 analogs of Example 12; mean ± SEM, n = 8; PBS 73 ± 6): 105 ± 7
- Mean stimulation of angiogenesis (%) ([2]; 10 μg/matrigel plug, numbers are T4 analogs of Example 12, dihydrate): 87% and 87 ± 33%
- Hemoglobin (mg/mL) ± SEM [2, 10]: 0.8 ± 0.2 mg/mL

Compound: tetraiodothyroacetic acid [Tetrac]
- Mean inhibition of angiogenesis (%) ([2]; T4 + test substance, each 10 μg/matrigel plug): 89 ± 11%
- Hemoglobin (mg/mL) ± SEM [2, 11]: 0.4 ± 0.1 mg/mL
